Here are results for 5 molecules from patent publication US20030153731A1, “Endothelial cell-leukocyte adhesion molecules (ELAMs) and molecules involved in leukocyte adhesion (MILAs)” (priority 1989, published 2003).

The target of assay [1] is T1, 1,3-fucosyl transferase in extracts from CHO cells transfected with clone 7.2 (Homo sapiens, UniProt P22083).
T1 construct: expressed in transfected cells; host or cells: CHO cells transfected with clone 7.2; Triton X-100 lysate
T1 sequence (P22083 1-405 isoform P22083-2): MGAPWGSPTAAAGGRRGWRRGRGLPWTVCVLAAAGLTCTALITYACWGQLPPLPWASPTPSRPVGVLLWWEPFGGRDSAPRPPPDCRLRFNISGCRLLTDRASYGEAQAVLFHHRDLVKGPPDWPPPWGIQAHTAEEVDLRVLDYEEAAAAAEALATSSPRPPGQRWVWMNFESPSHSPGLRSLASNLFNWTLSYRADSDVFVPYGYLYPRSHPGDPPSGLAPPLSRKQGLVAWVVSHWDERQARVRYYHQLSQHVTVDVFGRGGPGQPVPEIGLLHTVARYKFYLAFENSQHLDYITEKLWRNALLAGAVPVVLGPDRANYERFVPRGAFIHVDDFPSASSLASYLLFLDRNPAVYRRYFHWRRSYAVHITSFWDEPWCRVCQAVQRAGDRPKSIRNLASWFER
Nature of the assay: fucosyl transferase enzyme assay: linking 14C-fucose to acceptor molecules. Type of assay: biochemical. Conditions: for Efficiency of Fucosylation: enzyme freshly produced from transfected CHO cells, 1 hour at 37° C; for linking of fucose to acceptor by the induced enzyme: extract of CHO cells transfected with clone 7.2. On the procedure:
The assays tested the ability of the enzyme to link radioactively labelled fucose to an acceptor molecule. We performed the assays as follows.
We prepared assay samples containing 10 μl enzyme, 8 μl cocktail and 2 μl 10×acceptor. We prepared the enzyme by isolating about 1.5 million CHO cells transfected with clone 7.2 and lysing them by sonication for 15 seconds in 150 μl ice-cold 1% Triton X-100 in water. The cocktail contained 75 μM ^14C-GDP fucose, 100 mM ATP, 500 mM L-fucose, 1 M MnCl2 and 1 M cacodylate at pH 6.2. 10×acceptor contained, variously, 200 mM LacNAc, Lac-N-biose, or lactose, 250 mM phenyl-β-D-galactoside, or 50 mM 2′-fucosyllactose. We incubated the assay samples for 1 hour at 37° C. We stopped the reaction by addition of 20 μl ethanol. We diluted the sample with 560 μl water and centrifuged in an EPPENDORF centrifuge for 5 minutes at high speed.
We had prepared a DOWEX 1×2-400 column (Sigma Chemical Co.) to separate the unconverted ^14C fucose-GDP from the converted. We loaded the matrix into a large column and washed it with 10 volumes of iN NaOH, followed by 5 volumes of water, followed by 10 volumes of 5% concentrated formic acid. Then we repeated this wash cycle. We used this material to create small columns of 0.4 ml. We prepared the small columns for use by washing them with 10 volumes of water.
We loaded 200 μl of the sample onto the small column, collected the eluate, rinsed with 2 ml water and collected it into the eluate. We determined the radioactivity of this eluate by scintillation counting.

Assay [2] concerns HL-60 cells; RAMOS cells. Briefly: cell binding to rsELAM1-coated plates. It counts as cell-based, human. As for the experimental part:
To a 6 cm diameter Petri dish of bacteriologic plastic (e.g., Falcon 110070) we added 2.5 ml of 50 mM Tris buffer, pH 9.5. To this we added 10 μg of pure rsELAM1. We incubated the plate for 60 minutes at room temperature to allow the rsELAM1 to bind to the plate. Then we aspirated the medium and replaced it with PBS containing 10 mg/ml bovine serum albumin. We incubated the plates overnight at 40 in this solution to block remaining protein binding sites on the plates. We warmed the plates to room temperature, washed them with medium containing 10% fetal calf serum, and incubated them with 2 ml of cells (2×10^6 ml^−1) for 20 minutes. We aspirated the medium and washed the plates twice with 3 ml each of medium (RPMI 1640 with 10% serum). Then we examined the plates by microscopy.
A second assay would test the ability of a small molecule to inhibit cell binding to ELAM itself. We have developed such an assay with rsELAM1 which works in 96 well microtiter plates. These plates, made of bacteriologic plastic (e.g. Linbro/Titertek #76-232-050), are incubated with 0.5 μg per well of rsELAM1 in 50 μl of 15 mM sodium carbonate/35 mM sodium bicarbonate, pH 9.2, overnight at 40. The plates are then blocked for one hour at room temperature with PBS containing 10 mg/ml of bovine serum albumin, and then adhesion assays performed as described in Example VIII using, e.g., HL-60 cells, 2×10^6/ml, 50 μl per well. Under these conditions HL-60 cells bind well to rsELAM1, providing a convenient microassay for screening. One would identify inhibitors by their ability to inhibit HL-60 binding to the plate. Alternatively, one could use an ELAM ligand in this assay, using as the probe a cell line that stably expresses an ELAM.

Take `OC[C@H]1O[C@@H](Oc2ccccc2)[C@H](O)[C@@H](O)[C@H]1O` [PhβDgal, phenyl-β-D-galactoside]: in assay [1], the “Efficiency of Fucosylation” value is recorded as “Not detectable” and the “linking of fucose to acceptor by the induced enzyme” value (“linking of fucose to acceptor” below) is reported as “did not link fucose”.
`CC(=O)N[C@@H]1[C@@H](O[C@@H]2O[C@H](CO)[C@H](O)[C@H](O)[C@H]2O)[C@H](O)[C@@H](CO)O[C@@H]1O` [Lac-N-Biose, Lac-N-biose]: in assay [1], the “Efficiency of Fucosylation” value is on record as 76 picomoles/mg Total protein · h and the “linking of fucose to acceptor” value is “did not link fucose”.
The matching figures for `CC(=O)N[C@H]1C(O)O[C@H](CO)[C@@H](O[C@@H]2O[C@H](CO)[C@H](O)[C@H](O)[C@H]2O)[C@@H]1O` (some centres unmarked) [LacNAc]: 1110 picomoles/mg Total protein · h and “linked fucose”.
On to `OC[C@H]1O[C@@H](O[C@H]2[C@H](O)[C@@H](O)C(O)O[C@@H]2CO)[C@H](O)[C@@H](O)[C@H]1O` (some centres unmarked) [Lactose, lactose], for which, in assay [1], the “Efficiency of Fucosylation” value was 290 picomoles/mg Total protein · h and the “linking of fucose to acceptor” value is reported as “linked fucose”.

B1: rsELAM1: portion of the extracellular domain of ELAM1 encoded by nucleotides 141 to 1790 of FIG. 1 (protein, UniProt P16581 22-556, looked up)
extracellular domain: WSYNTSTEAMTYDEASAYCQQRYTHLVAIQNKEEIEYLNSILSYSPSYYWIGIRKVNNVWVWVGTQKPLTEEAKNWAPGEPNNRQKDEDCVEIYIKREKDVGMWNDERCSKKKLALCYTAACTNTSCSGHGECVETINNYTCKCDPGFSGLKCEQIVNCTALESPEHGSLVCSHPLGNFSYNSSCSISCDRGYLPSSMETMQCMSSGEWSAPIPACNVVECDAVTNPANGFVECFQNPGSFPWNTTCTFDCEEGFELMGAQSLQCTSSGNWDNEKPTCKAVTCRAVRQPQNGSVRCSHSPAGEFTFKSSCNFTCEEGFMLQGPAQVECTTQGQWTQQIPVCEAFQCTALSNPERGYMNCLPSASGSFRYGSSCEFSCEQGFVLKGSKRLQCGPTGEWDNEKPTCEAVRCDAVHQPPKGLVRCAHSPIGEFTYKSSCAFSCEEGFELHGSTQLECTSQGQWTEEVPSCQVVKCSSLAVPGKINMSCSGEPVFGTVCKFACPEGWTLNGSAARTCGATGHWSGLLPTCEAPTESNIP
modifications: extracellular domain
As to B1, the “binding of HL-60 cells to rsELAM1 in 96 well microtiter plates” value in assay [2] (0.5 μg per well rsELAM1, HL-60 2×10^6/ml, 50 μl per well) is “bind well”. Besides, in assay [2] (6 cm Petri dish, 10 μg rsELAM1), the “binding of HL-60 cells to rsELAM1-coated plates” value is reported as “bind to rsELAM1-coated plates” and the “binding of RAMOS cells to rsELAM1-coated plates” value was “do not bind to these plates”.
